Data from patent US6919306B2, “Method of skin care” (Yaizu Suisankagaku Industry Co. Ltd., priority 1999, dated 2005).
Marks after values point to notes of the source that are not given here.

Tests used:
[1] = Solubility of natural-type NAG in water; assay type: physicochemical; details: water of 25° C.
Source text: In the present invention, as a carrier for the skin care agent, foods such as confectioneries, powdered soups, dairy products and beverages, may, for example, be mentioned. As such foods, specifically, gum, candies, tabletted confectioneries, chocolate, jelly, cookies, snacks, corn potage soup, consomme soup, milk, pudding, yogurt, ice cream, lactic acid beverages, alcohol beverages, vitamin beverages, mineral beverages, coffee beverages, near water, nutrition drinks, and the like, may be mentioned.

Wister rats (SPF) = assay: Acute toxic test of NAG; assay type: in vivo; details: rat
Method: To each of five males and five females of Wister rats (SPF), NAG was given by a single oral administration in an amount of 5,000 mg per kg of body weight. After the administration, these rats were bred for 14 days and observed, and no death was recognized. It was also recognized that the 50% lethal dose (LD50) to the rats was at least 5,000 mg per kg of body weight.

skin surface = assay: Microscopic three-dimensional skin surface analysis (VISIOSCAN); assay type: in vivo, human; design: key to SEsc (Ideal value: Lowest value), Below left eye / SEsc (Ideal value: Lowest value), Left upper arm: SEsc = I/(Nx×Ny)×100; lower = more moist, less scaling; key to SEsm (Ideal value: Lowest value), Left upper arm / SEsm (Ideal value: Lowest value), Below left eye: SEsm = (Co−Cu)×(Fmx−Fmy)×K; lower = smoother skin; SWw (Ideal value: Lowest value), Below left eye / SWw (Ideal value: Lowest value), Left upper arm: scale not given here; details: for Kurtosis (Ideal value: 0), Below left eye / Kurtosis (Ideal value: 0), Left upper arm / Kurtosis (Ideal value: 0), Poll / SEr (Ideal value: Lowest value), Below left eye / SEr (Ideal value: Lowest value), Left upper arm / SEr (Ideal value: Lowest value), Poll / SEsc (Ideal value: Lowest value), Below left eye / SEsc (Ideal value: Lowest value), Left upper arm / SEsc (Ideal value: Lowest value), Poll / SEsm (Ideal value: Lowest value), Below left eye / SEsm (Ideal value: Lowest value), Left upper arm / SEsm (Ideal value: Lowest value), Poll / SWw (Ideal value: Lowest value), Below left eye / SWw (Ideal value: Lowest value), Left upper arm / SWw (Ideal value: Lowest value), Poll: NAG 1,000 mg/day oral; for SEr (Ideal value: Lowest value), Below left eye / SEr (Ideal value: Lowest value), Left upper arm / SEr (Ideal value: Lowest value), Poll: skin roughness; for SEsc (Ideal value: Lowest value), Below left eye / SEsc (Ideal value: Lowest value), Left upper arm / SEsc (Ideal value: Lowest value), Poll: skin scaliness; for SEsm (Ideal value: Lowest value), Below left eye / SEsm (Ideal value: Lowest value), Left upper arm / SEsm (Ideal value: Lowest value), Poll: skin smoothness; for SWw (Ideal value: Lowest value), Below left eye / SWw (Ideal value: Lowest value), Left upper arm / SWw (Ideal value: Lowest value), Poll: skin wrinkles
Method: To 22 females usually having a tendency of xeroderma and rough skin (average age: 25.5±10.7), a double blind long-term ingestion study was carried out in the following manners provided that a […] were given to a control group.
NAG-containing tablets-administered group (NAG group, n=11): Tablets prepared similarly as in Example 1 as described below (NAG amount: 200 mg/tablet), were ingested at a rate of 5 tablets/day (NAG 1,000 mg/day, as a daily dose).
The ingestion period was 8 weeks in each group. The inspection was in principle carried out just before the start of ingestion, 4 weeks after the start of ingestion, and just before the completion of ingestion (8 weeks after the start of ingestion).
This analysis was conducted by using a digital analyzer of the skin surface (VISIONSCAN: manufactured by Courage+Khazaka Electronic Gmbh). In use of this apparatus, the skin surface was irradiated with special ultraviolet ray source, and the image is taken by a high performance CCD camera and digitalized for evaluation. The following factors were sampled as parameters.
This value is calculated from the average of the width and depth of wrinkles by the following formula (i), and one of indices which show the smoothness of skin. The smaller this value is, the smoother the skin surface is. SEsm=(Co−Cu)×(Fmx−Fmy)×K (i) • Fmx: average width of furrows for the row analysis. • Fmy: average width of furrows for the column analysis. • Co: right frontier of the histogram whose calculation is based on a set-up values. • Cu: left frontier of the histogram whose calculation is based on a set-up values. • K: factor
This value is obtained by calculating the ratio of points darker than the set-up points in the whole image and further calculating by the following formula (ii), and one of indices which show the roughness of skin. The higher the value is, the rougher the skin is. SEr=I/(Nx×Ny)×100 (ii) • I: counter whose start value is 0 and which is incremented each time the gray value of the current point is smaller than the threshold issued from the set-up programs. • Nx: amount of point per row. • Ny: amount of point per column.
Epidermolysis parts are counted to be brighter than the set-up values in the image. The SEsc value is obtained by calculating the ratio of these parts relative to the entire part by the following formula (iii), and is one of indices which show the dryness of scale (corneum). The lower the value is, the more moist and the less epidermolysis (scale). SEsc=I/(Nx×Ny)×100 (iii) • I: counter whose start value is 0 and which is incremented each time the gray value of the current point is bigger than the threshold issued from the set-up programs. • Nx: amount of point per row. • Ny: amount of point per column.
The higher the value is, the more the number of wrinkle is and the wider the width of wrinkles is. SEw=Fmx×Fmy/(Fax×Fay)×Fay/Fax×K (iv) • Fax: amount of furrows for the row analysis. • Fmx: average width of furrows for the row analysis. • Fay: amount of furrows for the column analysis. • Fmy: average width of furrows for the column analysis. • K: factor
The closer to 0 the value is, the smoother in curve the hue point is and the closer to ideal skin.

## CC(=O)N[C@H]1C(O)O[C@H](CO)[C@@H](O)[C@@H]1O (stereo partly shown) [NAG, N-acetylglucosamine]
[1]
  solubility in water: 32 % by weight
Wister rats (SPF); both, Wister, in vivo, po, 14 days
  50% lethal dose (LD50): at least 5,000 mg per kg of body weight
Wister rats (SPF); orally administered 5 g per kg of body weight
  safety on oral administration: safety is confirmed
Skin surface; after 4 weeks
  Kurtosis (Ideal value: 0), Below left eye: 0.34
  Kurtosis (Ideal value: 0), Left upper arm: 0.40
  Kurtosis (Ideal value: 0), Poll: 0.39
  SEr (Ideal value: Lowest value), Below left eye: 0.26
  SEr (Ideal value: Lowest value), Left upper arm: 0.22
  SEr (Ideal value: Lowest value), Poll: 0.32
  SEsc (Ideal value: Lowest value), Below left eye: 137.0
  SEsc (Ideal value: Lowest value), Left upper arm: 195.8
  SEsc (Ideal value: Lowest value), Poll: 201.6
  SEsm (Ideal value: Lowest value), Below left eye: 337.6
  SEsm (Ideal value: Lowest value), Left upper arm: 324.7
  SWw (Ideal value: Lowest value), Below left eye: 29.0
  SWw (Ideal value: Lowest value), Left upper arm: 26.4
  SWw (Ideal value: Lowest value), Poll: 23.4
Skin surface; after 8 weeks
  Kurtosis (Ideal value: 0), Below left eye: 0.30
  Kurtosis (Ideal value: 0), Left upper arm: 0.50
  Kurtosis (Ideal value: 0), Poll: 0.39
  SEr (Ideal value: Lowest value), Below left eye: 0.21
  SEr (Ideal value: Lowest value), Left upper arm: 0.28
  SEr (Ideal value: Lowest value), Poll: 0.40
  SEsc (Ideal value: Lowest value), Below left eye: 133.0
  SEsc (Ideal value: Lowest value), Left upper arm: 202.4
  SEsm (Ideal value: Lowest value), Below left eye: 309.4
  SEsm (Ideal value: Lowest value), Left upper arm: 379.9
  SWw (Ideal value: Lowest value), Below left eye: 27.8
  SWw (Ideal value: Lowest value), Left upper arm: 31.9
  SWw (Ideal value: Lowest value), Poll: 29.5
Skin surface; before ingestion
  Kurtosis (Ideal value: 0), Below left eye: 0.58
  Kurtosis (Ideal value: 0), Left upper arm: 0.97
  Kurtosis (Ideal value: 0), Poll: 0.79
  SEr (Ideal value: Lowest value), Below left eye: 0.25
  SEr (Ideal value: Lowest value), Left upper arm: 0.30
  SEr (Ideal value: Lowest value), Poll: 0.51
  SEsc (Ideal value: Lowest value), Below left eye: 238.4
  SEsc (Ideal value: Lowest value), Left upper arm: 342.9
  SEsc (Ideal value: Lowest value), Poll: 352.4
  SEsm (Ideal value: Lowest value), Below left eye: 378.1
  SEsm (Ideal value: Lowest value), Left upper arm: 384.7
  SEsm (Ideal value: Lowest value), Poll: 443.8
  SWw (Ideal value: Lowest value), Below left eye: 33.2
  SWw (Ideal value: Lowest value), Left upper arm: 30.2
  SWw (Ideal value: Lowest value), Poll: 27.3
Skin surface; NAG group, 1,000 mg/day oral, 8 weeks
  SEsm value and SEsc value at the poll, change: significant decrease
Skin surface; after 8 weeks, p < 0.05
  SEsc (Ideal value: Lowest value), Poll: 169.3*
  SEsm (Ideal value: Lowest value), Poll: 345.2*
Skin surface; after 4 weeks, p < 0.05
  SEsm (Ideal value: Lowest value), Poll: 338.9*
